Holding throughout (type): in vivo
The test system of test [1] is Alternaria solani. The experiment in a line: Alternaria test (tomatoes)/preventive. Particulars: preventive spray, evaluated 3 days after inoculation.
Test [2] deals with Phytophthora infestans. Particulars: tomatoes, preventive spray, 1 ppm a.i., evaluated 3 days after inoculation.
The test system of test [3] is Venturia inaequalis. The experiment in a line: Venturia test (apples)/preventive. Particulars: preventive spray, evaluated 10 days after inoculation.

The source of these data is US20150289514A1 (priority 2012, published 2015).

For the compound `CO/C=C(/C(=O)OC)c1ccccc1Oc1cc(Oc2ccccc2C#N)ncn1` [F107, azoxystrobin], the “Efficacy in % found” value in test [1] (1 ppm a.i.) came to 39%; in test [2], 61%.

For `CSC1=N[C@@](C)(c2ccccc2)C(=O)N1Nc1ccccc1` [F114, fenamidone], in test [2], the “Efficacy in % found” value is recorded as 37%.

As to `COC(=O)N(OC)c1ccccc1COc1ccn(-c2ccc(Cl)cc2)n1` [F121, pyraclostrobin], the “Efficacy in % found” value came to 65% in test [3] (1 ppm a.i.) and 30% in test [1] (0.5 ppm a.i.).

With `CON=C(C(=O)OC)c1ccccc1CON=C(C)c1cccc(C(F)(F)F)c1` [F126, trifloxystrobin], the entries for the “Efficacy in % found” value in test [3] (0.25 ppm a.i.) and in test [1] (1 ppm a.i.) were 60% and 38%, respectively.
